B1: p14: fusogenic p14 FAST fusion protein from reptilian reovirus, SEQ ID NO: 16 (protein, listed as Homo sapiens)
chain: MGSGPSNFVNHAPGEAIVTGLEKGADKVAGTISHTIWEVIAGLVALLTFLAFGFWLFKYLQKRRERRRQLTEFQKRYLRNSYRLSEIQRPISQHEYEDPYEPPSRRKPPPPPYSTYVNIDNVSAI

Assays:
[1] = humans; cited from earlier work
[2] = test system: Human prostate cancer PC-3 cells; test: Western blot of iCasp9 and Casp9 protein levels in PC-3 cells; type: cell-based; settings: PC-3 cells treated with Fusogenix lipid nanoparticles carrying pVax-p53-iCasp9-luc plasmid
Protocol: FIG. 36 is a Western blot of iCasp 9 and Casp 9 protein levels obtained with p53-expressing cells (pVax-p53) and control cells (pcDNA3-GFP). Human prostate cancer PC-3 cells were treated with Fusogenix lipid nanoparticles carrying the pVax-p53-iCasp9-luc (luciferin) plasmid (in the presence and absence of the homodimerizer AP201870) and assessed for iCasp9 expression.
Human prostate cancer PC-3 cells were treated with Fusogenix lipid nanoparticles carrying the pVax-p53-iCasp9-luc (luciferin) plasmid (in the presence and absence of the homodimerizer AP201870) and assessed for iCasp9 expression and subjected to Western blot analysis of iCasp 9 and Casp 9 protein levels obtained with p53-expressing cells (pVax-p53) and control cells (pcDNA3-GFP). FIG. 36.

[3] = test system: Human prostate cancer (LNCaP, DU145, PC-3) or normal epithelial (RWPE) cells; test: Western blot and luminescence assays of iCasp9 expression in prostate cancer and normal epithelial cells; type: cell-based; settings: DU145, PC-3, RWPE cells treated with Fusogenix lipid nanoparticles carrying pVax-p53-iCasp9-luc plasmid
[4] = test system: Human prostate cancer PC-3 cells; test: Luminescence assay of iCasp9 expression in PC-3 cells; type: cell-based; settings: PC-3 cells treated with Fusogenix lipid nanoparticles carrying pVax-p53-iCasp9-luc plasmid
Protocol: FIG. 42 is a bar graph of data from a luminescence assay of iCasp 9 and Casp 9 protein levels obtained with the p53-expressing cells presented in FIG. 36 (pVax-p53) and control cells (pcDNA3-GFP). Human prostate cancer PC-3 cells were treated with Fusogenix lipid nanoparticles carrying the pVax-p53-iCasp9-luc (luciferin) plasmid (in the presence and absence of the homodimerizer AP20187) and assessed for iCasp9 expression.
Human prostate cancer PC-3 cells were treated with Fusogenix lipid nanoparticles carrying the pVax-p53-iCasp9-luc (luciferin) plasmid (in the presence and absence of the homodimerizer AP20187) and assessed for iCasp9 expression.

[5] = Anti-p14 and anti-LNP antibody response in immune competent mice; type: in vivo; settings: with adjuvant: 3 injections of 50 μg p14 with Freund's adjuvant at 10 day intervals; sera after 30 days
Protocol: Mice were injected three (3) times at 10 day intervals with purified p14 mixed with Freund's adjuvant. A first dose contained CFA (complete Freund's adjuvant) while second and third doses contained IFA (incomplete Freund's adjuvant). Each injection was with 50 μg of p14. Mice were sacrificed after 30 days and sera was analyzed for anti-p14 antibodies. p14 lipid nanoparticles were also tested in two (2) mice via intravenous injection of 400 μg of p53-iCasp9 Fusogenix lipid nanoparticles containing 240 μg of p14. Mice were sacrificed after 30 days of injection and serum was analyzed for anti-p14 antibodies. A positive control included purified antibodies spiked in serum at a high dose of 250 ng/ml and a low dose of 50 ng/ml.

Molecule	intravenous safety [1]	expression of iCasp9 and luciferase after addition of CID [2]	expression of iCasp9 and luciferase after addition of CID [3]	expression of iCasp9 and luciferase after addition of CID [4]	anti-p14 antibody response [5]
CC[C@H](C(=O)N1CCCC[C@H]1C(=O)O[C@H](CCc1ccc(OC)c(OC)c1)c1cccc(OCC(=O)NCCNC(=O)COc2cccc([C@@H](CCc3ccc(OC)c(OC)c3)OC(=O)[C@@H]3CCCCN3C(=O)[C@@H](CC)c3cc(OC)c(OC)c(OC)c3)c2)c1)c1cc(OC)c(OC)c(OC)c1 [AP1903]	confirmed	abolishes the expression of iCasp9 and luciferase	abolishes the expression of iCasp9 and luciferase	abolishes the expression of iCasp9 and luciferase	
CC[C@H](C(=O)N1CCCC[C@H]1C(=O)O[C@H](CCc1ccc(OC)c(OC)c1)c1cccc(OCC(=O)NCC(CNC(=O)COc2cccc([C@@H](CCc3ccc(OC)c(OC)c3)OC(=O)[C@@H]3CCCCN3C(=O)[C@@H](CC)c3cc(OC)c(OC)c(OC)c3)c2)CN(C)C)c1)c1cc(OC)c(OC)c(OC)c1 [AP20187]		abolishes the expression of iCasp9 and luciferase	abolishes the expression of iCasp9 and luciferase	abolishes the expression of iCasp9 and luciferase	
B1					virtually no antibody response

— patent US11603543B2, “Fusogenic lipid nanoparticles for target cell-specific production of a therapeutic protein” (Oisin Biotechnologies, Inc., priority 2018, dated 2023)
